Bounds are passed on as bounds.

The target of the experiment is T1, CCXCKR2 receptor (Homo sapiens, UniProt P25106).
T1 construct: expressed in transfected cells; host or cells: MDA-MB-435S transfected with pcDNA3.1(+)-hRDC1 and/or MCF-7 (endogenous receptor)
T1 sequence (P25106 whole entry): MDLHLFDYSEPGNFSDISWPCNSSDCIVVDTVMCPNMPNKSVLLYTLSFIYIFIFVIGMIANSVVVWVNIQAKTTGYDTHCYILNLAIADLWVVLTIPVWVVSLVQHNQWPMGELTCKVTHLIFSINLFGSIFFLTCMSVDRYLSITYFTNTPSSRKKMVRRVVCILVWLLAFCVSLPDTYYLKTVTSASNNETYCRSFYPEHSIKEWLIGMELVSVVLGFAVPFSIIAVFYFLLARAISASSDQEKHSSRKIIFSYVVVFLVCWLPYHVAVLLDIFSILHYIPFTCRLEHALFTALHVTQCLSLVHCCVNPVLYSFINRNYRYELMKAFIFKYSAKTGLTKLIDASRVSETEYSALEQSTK
Put plainly: Displacement of 125I-labeled SDF-1 from the CCXCKR2 receptor on MCF-7 and/or CCXCKR2-transfected MDA-MB-435S cells (radioligand binding, filtration). The following applies: 125I SDF-1, 3 hr at 4° C., MCF-7 and/or MDA-MB-435S cells; read-out: Activity (concentration displacing at least 50% of the SDF-1 from the CCXCKR2 receptor). On the technique in general: In a radioligand displacement assay an active substance lowers the binding of a labelled ligand.
`CC(C)Oc1ccc(C(=O)c2cn(Cc3cccc(Br)n3)c3ccccc3c2=O)cc1` [Example 218]: the IC50 was in the range of 100 to 500 nM.

On to `COc1ccc(C(=O)c2cn(Cc3cccc(Br)n3)c3ccccc3c2=O)nc1C` [Example 242], for which the IC50 was below 100 nM.

`Cc1cccc(Cn2cc(C(=O)c3ccc(Cl)cc3)c(=O)c3ccccc32)n1` [Example 184]: the IC50 was below 100 nM.

`O=C(c1ncc(Br)cn1)c1cn(Cc2cccc(Br)n2)c2ccccc2c1=O` [Example 128]: the IC50 is 500 to 20000 nM.

Regarding `Cc1ccc(C(=O)c2cn(Cc3cccc(NS(C)(=O)=O)n3)c3ccccc3c2=O)cc1C` [Example 60], the IC50 is 100 to 500 nM.

Consider `Cc1ccnc(C(=O)c2cn(Cc3cccc(Br)n3)c3ccccc3c2=O)c1` [Example 150], for which the IC50 lay within 100 to 500 nM.

In the case of `Cc1ccc(C(=O)c2cn(Cc3cccc(Br)n3)c3cc(F)c(F)cc3c2=O)cc1C` [Example 73], the IC50 was below 100 nM.

Regarding `O=C(O)c1ccccc1C(=O)c1cn(Cc2cccc(Br)n2)c2ccccc2c1=O` [Example 138], the IC50 was below 100 nM.

In the case of `Cc1ccc(C(=O)c2cn(Cc3cccc(CN(C)C)n3)c3ccccc3c2=O)cc1C` [Example 118], the IC50 lay in the range of 500 to 20000 nM.

For `Cc1cccc(Cn2cc(C(=O)c3cc(C)on3)c(=O)c3ccccc32)n1` [Example 208], the IC50 lay within 500 to 20000 nM.

Take `Cc1cc(C(=O)c2cn(Cc3cccc(Br)n3)c3ccccc3c2=O)cnc1C` [Example 54]: the IC50 is below 100 nM.

For the molecule `COc1ccc(C(=O)c2cn(Cc3cccc(C(F)(F)F)n3)c3ccccc3c2=O)cc1C` [Example 202], the IC50 is below 100 nM.

In the case of `Cc1ccc(C(=O)c2cn(Cc3ccccn3)c3ccc(C(F)(F)F)cc3c2=O)cc1C` [Example 13], the IC50 was in the range of 500 to 20000 nM.

As for `Cc1ccccc1C(=O)c1cn(Cc2cccc(Br)n2)c2ccccc2c1=O` [Example 121], the IC50 is below 100 nM.

For `CN(C)Cc1ccccc1C(=O)c1cn(Cc2cccc(Br)n2)c2ccccc2c1=O` [Example 129], the IC50 is below 100 nM.

`Cc1ccc2c(=O)c(C(=O)c3cnc(C)c(C)c3)cn(Cc3cccc(Br)n3)c2n1` [Example 146]: the IC50 was 100 to 500 nM.

As for `Cc1ccc(C(=O)c2cn(Cc3cccc(NC(=O)C(F)(F)F)n3)c3ccccc3c2=O)cc1C` [Example 87], the IC50 is below 100 nM.

Turning to `Cc1ccc(C(=O)c2cn(Cc3cccc(Br)n3)c3c(C)ccnc3c2=O)cc1C` [Example 116], the IC50 was in the range of 500 to 20000 nM.

In the case of `COc1ccc(C(=O)c2cn(Cc3cccc(C)n3)c3ccccc3c2=O)cc1F` [Example 183], the IC50 was below 100 nM.

As for `COc1ccc(C(=O)c2cn(Cc3cccc(Br)n3)c3ccccc3c2=O)c(C)c1` [Example 178], the IC50 was below 100 nM.

On to `COc1ccc(C(=O)c2cn(Cc3cccc(Br)n3)c3nc(C)ccc3c2=O)cc1C` [Example 143], for which the IC50 was below 100 nM.

On to `CNC(=O)c1ccccc1C(=O)c1cn(Cc2cccc(Br)n2)c2ccccc2c1=O` [Example 169], for which the IC50 was 500 to 20000 nM.

In the case of `COc1ccc(C(=O)c2cn(Cc3cccc(C)n3)c3ncccc3c2=O)cc1` [Example 161], the IC50 was below 100 nM.

As to `Cc1ccc(C(=O)c2cn(Cc3cccnc3)c3ccccc3c2=O)cc1C` [Example 10], the IC50 was 500 to 20000 nM.

As to `Cc1ccc(C(=O)c2cn(Cc3ccc(C(F)(F)F)o3)c3ccccc3c2=O)cc1C` [Example 65], the IC50 was below 100 nM.

As for `O=C(c1ccc(CN2CCOCC2)cc1)c1cn(Cc2cccc(Br)n2)c2ccccc2c1=O` [Example 123], the IC50 was 500 to 20000 nM.

With `O=C(c1ccccc1C(=O)N1CCC1)c1cn(Cc2cccc(Br)n2)c2ccccc2c1=O` [Example 171], the IC50 is below 100 nM.

`Cc1ccc2c(=O)c(C(=O)c3ccc4c(c3)OCCO4)cn(Cc3cccc(Br)n3)c2n1` [Example 142]: the IC50 was below 100 nM.

For `O=C(c1ccc(C2OCCCO2)cc1)c1cn(Cc2cccc(Br)n2)c2ccccc2c1=O` [Example 137], the IC50 was in the range of 100 to 500 nM.

On to `Cc1ccc(C(=O)c2cn(Cc3ncccc3F)c3ccccc3c2=O)cc1C` [Example 37], for which the IC50 was below 100 nM.

For the molecule `Cc1ccc(C(=O)c2cn(Cc3cccnc3)c3cc4c(cc3c2=O)OCCO4)cc1C` [Example 12], the IC50 was 500 to 20000 nM.

Take `COC(=O)c1ccccc1C(=O)c1cn(Cc2cccc(Br)n2)c2ccccc2c1=O` [Example 155]: the IC50 is below 100 nM.

Consider `Cc1cccc(Cn2cc(C(=O)c3ccccc3Br)c(=O)c3ccccc32)n1` [Example 176], for which the IC50 is below 100 nM.

As for `COc1ccc(C(=O)c2cn(Cc3cccc(Br)n3)c3ccccc3c2=O)cc1C1OCCCO1` [Example 136], the IC50 is below 100 nM.

As for `Cc1cnc(C(=O)c2cn(Cc3cccc(Br)n3)c3ccccc3c2=O)cc1C` [Example 94], the IC50 is below 100 nM.

On to `Cc1ccc(C(=O)c2cn(Cc3cccc(C4CC4)n3)c3ccccc3c2=O)cc1C` [Example 74], for which the IC50 is below 100 nM.

Regarding `Cc1cccc(C(=O)c2cn(Cc3ccccc3F)c3ccccc3c2=O)c1` [Example 21], the IC50 is below 100 nM.

Consider `O=C(c1ccc(Cl)nc1)c1cn(Cc2cccc(Cl)c2)c2ccccc2c1=O` [Example 236], for which the IC50 lay in the range of 500 to 20000 nM.

As to `O=C(NC1CC1)c1ccccc1C(=O)c1cn(Cc2cccc(Br)n2)c2ccccc2c1=O` [Example 170], the IC50 was 500 to 20000 nM.

Turning to `COc1ccc(C(=O)c2cn(Cc3cccc(Br)n3)c3ccccc3c2=O)cc1F` [Example 145], the IC50 is below 100 nM.

`Cc1ccc(C(=O)c2cn(Cc3ccccc3F)c3ccccc3c2=O)nc1C` [Example 49]: the IC50 is below 100 nM.

Regarding `Cc1cc(C(=O)c2cn(Cc3cccc(Br)n3)c3ccccc3c2=O)ccc1F` [Example 203], the IC50 was below 100 nM.

In the case of `Cc1ccc(C(=O)c2cn(C(C)c3cccc(Br)n3)c3ccccc3c2=O)cc1C` (stereo not shown) [Example 75], the IC50 was below 100 nM.

As to `Cc1ccc(C(=O)c2cn(Cc3ccncc3)c3cc4c(cc3c2=O)OCO4)cc1C` [Example 3], the IC50 was 500 to 20000 nM.

`COc1ccc(C(=O)c2cn(Cc3cccc(C)n3)c3ncccc3c2=O)cc1F` [Example 163]: the IC50 was below 100 nM.

Turning to `CN(C)C(=O)c1cccc(C(=O)c2cn(Cc3cccc(Br)n3)c3ccccc3c2=O)c1` [Example 180], the IC50 is below 100 nM.

In the case of `Cc1cccc(Cn2cc(C(=O)c3ccccc3N3CCOCC3)c(=O)c3ccccc32)n1` [Example 205], the IC50 was below 100 nM.

Regarding `Cc1ccc(C(=O)c2cn(Cc3ccccc3C(F)(F)F)c3ccccc3c2=O)cc1C` [Example 36], the IC50 was 500 to 20000 nM.

For `COc1ccc(C(=O)c2cn(Cc3cccc(Cl)c3)c3ccccc3c2=O)cn1` [Example 246], the IC50 is below 100 nM.

Consider `Cc1ccc2c(=O)c(C(=O)c3ccc(C)c(C)c3)cn(Cc3cccc(Br)n3)c2n1` [Example 106], for which the IC50 was below 100 nM.

Take `Cc1ccc(C(=O)c2cn(Cc3ccccc3-c3cncnc3)c3ccccc3c2=O)cc1C` [Example 95]: the IC50 lay in the range of 500 to 20000 nM.

Consider `COc1ccc(C(=O)c2cn(Cc3cccc(Br)n3)c3ccccc3c2=O)cc1OC` [Example 140], for which the IC50 was below 100 nM.

`O=C(c1cccc(C(F)(F)F)n1)c1cn(Cc2cccc(Br)n2)c2ccccc2c1=O` [Example 139]: the IC50 fell in the range of 500 to 20000 nM.

Take `Cc1cccc(Cn2cc(C(=O)c3ccc(C(C)C)cc3)c(=O)c3cccnc32)n1` [Example 165]: the IC50 was below 100 nM.

As for `CCOc1ccc(C(=O)c2cn(Cc3cccc(Br)n3)c3ccccc3c2=O)cc1C` [Example 132], the IC50 is below 100 nM.

With `COc1ccc(C(=O)c2cn(Cc3cccc(C)n3)c3nc(C)c(C)cc3c2=O)cc1C` [Example 192], the IC50 lay within 100 to 500 nM.

Consider `O=C(c1ccncc1)c1cn(Cc2ccccc2F)c2ccccc2c1=O` [Example 15], for which the IC50 was in the range of 500 to 20000 nM.

Regarding `Cc1cc2c(=O)c(C(=O)c3ccc(C)c(C)c3)cn(Cc3cccc(Br)n3)c2c(C)n1` [Example 109], the IC50 was in the range of 500 to 20000 nM.

With `COCCOc1ccc(C(=O)c2cn(Cc3cccc(Br)n3)c3ccccc3c2=O)cc1C` [Example 127], the IC50 is 100 to 500 nM.

`COc1ccc(C(=O)c2cn(Cc3cccc(Br)n3)c3ncccc3c2=O)cc1C` [Example 160]: the IC50 is below 100 nM.

In the case of `Cc1ccc(C(=O)c2cn(Cc3cccc(Br)[n+]3[O-])c3ccccc3c2=O)cc1C` [Example 88], the IC50 lay within 100 to 500 nM.

For `COc1ccc(C(=O)c2cn(Cc3cccc(C(F)(F)F)n3)c3ccccc3c2=O)cc1F` [Example 217], the IC50 is below 100 nM.

For `Cc1cccc(Cn2cc(C(=O)c3ccc4c(c3)OCCO4)c(=O)c3cccnc32)n1` [Example 164], the IC50 was below 100 nM.

In the case of `CCc1ccc(C(=O)c2cn(Cc3cccc(Br)n3)c3ccccc3c2=O)cc1` [Example 115], the IC50 is below 100 nM.

For the origin of these results see patent publication US7557213B2, “Substituted quinolones and methods of use” (ChemoCentryx, Inc., priority 2005, dated 2009).
